Measurements from ChEMBL document CHEMBL1201862, “PubChem BioAssay data set” (2004).
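Tested at 5 concentrations; 48 h exposure; 96-well plates; endpoints linearly interpolated, else capped at highest concentration. Abbreviation: GI50, concentration required for 50% inhibition of growth.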 Activity calls are given as the source filed them. Rule as the data show it: active = GI50 up to about 1.1 µM and inactive = higher.

Legend:
Assay in all cases: NCI-60 cell line screen, 48 h
COLO 205 = test system: COLO 205
K562 = test system: K562
SR = test system: SR
NCI-H23 = test system: NCI-H23
MDA-N = test system: MDA-N
OVCAR-3 = test system: OVCAR-3
Hs-578T = test system: Hs-578T
HCC 2998 = test system: HCC 2998
OVCAR-4 = test system: OVCAR-4
IGROV-1 = test system: IGROV-1
SNB-75 = test system: SNB-75
SNB-19 = test system: SNB-19
SK-MEL-28 = test system: SK-MEL-28
HT-29 = test system: HT-29
MCF7 = test system: MCF7
SK-OV-3 = test system: SK-OV-3
CAKI-1 = test system: CAKI-1
U-251 = test system: U-251
HCT-116 = test system: HCT-116
HCT-15 = test system: HCT-15
UO-31 = test system: UO-31
MOLT-4 = test system: MOLT-4
SW-620 = test system: SW-620
OVCAR-5 = test system: OVCAR-5
OVCAR-8 = test system: OVCAR-8
SF-295 = test system: SF-295
HL-60 = test system: HL-60
Malme-3M = test system: Malme-3M
SN12C = test system: SN12C
UACC-257 = test system: UACC-257
A549 = test system: A549
MDA-MB-435 = test system: MDA-MB-435
KM12 = test system: KM12
NCI-H226 = test system: NCI-H226
TK-10 = test system: TK-10
SK-MEL-2 = test system: SK-MEL-2
EKVX = test system: EKVX
T47D = test system: T47D
HOP-62 = test system: HOP-62
UACC-62 = test system: UACC-62
LOX IMVI = test system: LOX IMVI
BT-549 = test system: BT-549
786-0 = test system: 786-0
RPMI-8226 = test system: RPMI-8226
SF-268 = test system: SF-268
HOP-92 = test system: HOP-92
RXF 393 = test system: RXF 393
CCRF-CEM = test system: CCRF-CEM
NCI-H460 = test system: NCI-H460
A498 = test system: A498
MDA-MB-231 = test system: MDA-MB-231
ACHN = test system: ACHN
M14 = test system: M14
NCI/ADR-RES = test system: NCI/ADR-RES
PC-3 = test system: PC-3
DU-145 = test system: DU-145
SK-MEL-5 = test system: SK-MEL-5
SF-539 = test system: SF-539
NCI-H522 = test system: NCI-H522

For `OC1(c2ccccc2)CC2CCC(C1)N2CCc1ccccc1` (centres undefined), the GI50 (COLO 205) was 17.6 µM (inactive), the GI50 (K562) was 45.5 µM (inactive) and the GI50 (SR) was > 100 µM (inactive). The GI50 (NCI-H23) was 53.6 µM (inactive), the GI50 (MDA-N) was 56.8 µM (inactive) and the GI50 (OVCAR-3) was 85.5 µM (inactive). For the same compound, the GI50 (Hs-578T) was 5.27 µM (inactive), the GI50 (HCC 2998) was 58.3 µM (inactive) and the GI50 (OVCAR-4) was 72.8 µM (inactive). For the same compound, the GI50 (IGROV-1) was 86.3 µM (inactive), the GI50 (SNB-75) was > 100 µM (inactive) and the GI50 (SNB-19) was 93.1 µM (inactive). The GI50 (SK-MEL-28) was 68.4 µM (inactive), the GI50 (HT-29) was 23.8 µM (inactive) and the GI50 (MCF7) was 28.6 µM (inactive). For the same compound, the GI50 (SK-OV-3) was > 100 µM (inactive), the GI50 (CAKI-1) was 53.2 µM (inactive) and the GI50 (U-251) was > 100 µM (inactive). The GI50 (HCT-116) was 40.3 µM (inactive), the GI50 (HCT-15) was 89.9 µM and the GI50 (UO-31) was 28.1 µM (inactive). The GI50 (MOLT-4) was 29.7 µM (inactive), the GI50 (SW-620) was 48.9 µM (inactive) and the GI50 (OVCAR-5) was 26.1 µM (inactive). The GI50 (OVCAR-8) was 92.9 µM (inactive), the GI50 (SF-295) was 34.6 µM (inactive) and the GI50 (HL-60) was 58.9 µM (inactive). The GI50 (Malme-3M) was > 100 µM (inactive), the GI50 (SN12C) was > 100 µM (inactive) and the GI50 (UACC-257) was 24.5 µM (inactive). The GI50 (A549) was 49.8 µM (inactive), the GI50 (MDA-MB-435) was 55.5 µM (inactive) and the GI50 (KM12) was 57.9 µM (inactive). For the same compound, the GI50 (NCI-H226) was 61 µM (inactive), the GI50 (TK-10) was > 100 µM (inactive) and the GI50 (SK-MEL-2) was > 100 µM (inactive). For the same compound, the GI50 (EKVX) was 97.5 µM (inactive), the GI50 (T47D) was 45 µM (inactive) and the GI50 (HOP-62) was 45.4 µM (inactive). The GI50 (UACC-62) was 80.4 µM (inactive), the GI50 (LOX IMVI) was 54.7 µM (inactive) and the GI50 (BT-549) was 40.1 µM (inactive). For the same compound, the GI50 (786-0) was > 100 µM (inactive), the GI50 (RPMI-8226) was 30.3 µM (inactive) and the GI50 (SF-268) was > 100 µM (inactive). The GI50 (HOP-92) was 43.8 µM (inactive), the GI50 (RXF 393) was > 100 µM (inactive) and the GI50 (CCRF-CEM) was 34 µM (inactive). The GI50 (NCI-H460) was 58.9 µM (inactive), the GI50 (A498) was 19 µM (inactive) and the GI50 (MDA-MB-231) was 73.6 µM (inactive). The GI50 (ACHN) was 34.7 µM (inactive), the GI50 (M14) was 35.6 µM (inactive) and the GI50 (NCI/ADR-RES) was > 100 µM (inactive). For the same compound, the GI50 (PC-3) was 41.6 µM (inactive), the GI50 (DU-145) was 48.4 µM (inactive) and the GI50 (SK-MEL-5) was 13.7 µM (inactive). For the same compound, the GI50 (SF-539) was 81.8 µM (inactive).
`OCCN(C1=NCCN1)/[N+](=C/c1ccccc1O)[CH-]c1ccccc1O` was tested, and the GI50 (COLO 205) was > 100 µM (inactive), the GI50 (K562) was > 100 µM (inactive) and the GI50 (SR) was > 100 µM (inactive). The GI50 (NCI-H23) was > 100 µM (inactive), the GI50 (MDA-N) was > 100 µM (inactive) and the GI50 (OVCAR-3) was > 100 µM (inactive). For the same compound, the GI50 (Hs-578T) was > 100 µM (inactive), the GI50 (HCC 2998) was > 100 µM (inactive) and the GI50 (OVCAR-4) was > 100 µM (inactive). The GI50 (IGROV-1) was > 100 µM (inactive), the GI50 (SNB-75) was > 100 µM (inactive) and the GI50 (SNB-19) was > 100 µM (inactive). The GI50 (HT-29) was > 100 µM (inactive), the GI50 (MCF7) was > 100 µM (inactive) and the GI50 (SK-OV-3) was > 100 µM (inactive). For the same compound, the GI50 (CAKI-1) was > 100 µM (inactive), the GI50 (U-251) was > 100 µM (inactive) and the GI50 (HCT-116) was > 100 µM (inactive). The GI50 (HCT-15) was 51.5 µM, the GI50 (UO-31) was 37 µM (inactive) and the GI50 (MOLT-4) was > 100 µM (inactive). The GI50 (SW-620) was > 100 µM (inactive), the GI50 (OVCAR-5) was > 100 µM (inactive) and the GI50 (OVCAR-8) was > 100 µM (inactive). For the same compound, the GI50 (SF-295) was > 100 µM (inactive), the GI50 (HL-60) was > 100 µM (inactive) and the GI50 (Malme-3M) was > 100 µM (inactive). The GI50 (SN12C) was > 100 µM (inactive), the GI50 (UACC-257) was > 100 µM (inactive) and the GI50 (A549) was > 100 µM (inactive). The GI50 (MDA-MB-435) was > 100 µM (inactive), the GI50 (KM12) was > 100 µM (inactive) and the GI50 (NCI-H226) was 28.6 µM (inactive). For the same compound, the GI50 (TK-10) was > 100 µM (inactive), the GI50 (SK-MEL-2) was > 100 µM (inactive) and the GI50 (EKVX) was > 100 µM (inactive). For the same compound, the GI50 (T47D) was > 100 µM (inactive), the GI50 (HOP-62) was > 100 µM (inactive) and the GI50 (UACC-62) was > 100 µM (inactive). The GI50 (LOX IMVI) was > 100 µM (inactive), the GI50 (NCI-H522) was > 100 µM (inactive) and the GI50 (BT-549) was 37.8 µM (inactive). The GI50 (786-0) was > 100 µM (inactive), the GI50 (RPMI-8226) was > 100 µM (inactive) and the GI50 (SF-268) was > 100 µM (inactive). For the same compound, the GI50 (CCRF-CEM) was > 100 µM (inactive), the GI50 (NCI-H460) was > 100 µM (inactive) and the GI50 (A498) was > 100 µM (inactive). The GI50 (MDA-MB-231) was > 100 µM (inactive), the GI50 (ACHN) was > 100 µM (inactive) and the GI50 (M14) was > 100 µM (inactive). The GI50 (NCI/ADR-RES) was 83.6 µM (inactive), the GI50 (PC-3) was > 100 µM (inactive) and the GI50 (DU-145) was > 100 µM (inactive). For the same compound, the GI50 (SK-MEL-5) was > 100 µM (inactive) and the GI50 (SF-539) was > 100 µM (inactive).
